Results reported in patent US20240317718A1, “SUBSTITUTED HETEROCYCLIC COMPOUNDS” (BRISTOL-MYERS SQUIBB COMPANY, priority 2021, published 2024).

These compounds were tested on Caco-2 cells. Details: human, Caco-2, 2 h, 3 μM, pH 7.4.

Row | CACO2 (A-B) [nm/s] | SMILES
1 | 270 | [2H]C([2H])([2H])NC(=O)c1nnc(NC(=O)C2CC2)cc1Nc1cccc(-c2cnc(C3CC3)cn2)c1OC [Example 11, 6-cyclopropaneamido-4-{[3-(5-cyclopropylpyrazin-2-yl)-2-methoxyphenyl]amino}-N-(^2H3)methylpyridazine-3-carboxamide]
2 | 16 | [2H]C([2H])([2H])NC(=O)c1nnc(NC(=O)C2CC2)cc1Nc1cccc(-c2cnc([N+](=O)[O-])cn2)c1OC [Example 12, 6-cyclopropaneamido-4-{[2-methoxy-3-(5-nitropyrazin-2-yl)phenyl]amino}-N-(^2H3)methylpyridazine-3-carboxamide]
3 | 211 | [2H]C([2H])([2H])NC(=O)c1nnc(NC(=O)C2CC2)cc1Nc1cccc(-c2nc(C)ns2)c1OC [Example 13, 6-cyclopropaneamido-4-{[2-methoxy-3-(3-methyl-1,2,4-thiadiazol-5-yl)phenyl]amino}-N-(^2H3)methylpyridazine-3-carboxamide]

Continued, compound first:

Row | SMILES | CACO2 (A-B) [nm/s]
4 | [2H]C([2H])([2H])NC(=O)c1nnc(NC(=O)C2CC2)cc1Nc1cccc(-c2noc(COCC)n2)c1OC [Example 3, 6-cyclopropaneamido-4-({3-[5-(ethoxymethyl)-1,2,4-oxadiazol-3-yl]-2-methoxyphenyl}amino)-N-(^2H3)methylpyridazine-3-carboxamide] | 553
5 | [2H]C([2H])([2H])NC(=O)c1nnc(NC(=O)C2CC2)cc1Nc1cccc(-c2noc(CCOC)n2)c1OC [Example 4, 6-cyclopropaneamido-4-({2-methoxy-3-[5-(2-methoxyethyl)-1,2,4-oxadiazol-3-yl]phenyl}amino)-N-(^2H3)methylpyridazine-3-carboxamide] | 591
6 | [2H]C([2H])([2H])NC(=O)c1nnc(NC(=O)C2CC2)cc1Nc1cccc(-c2cc(C)ncn2)c1OC [Example 8, 6-cyclopropaneamido-4-{[2-methoxy-3-(6-methylpyrimidin-4-yl)phenyl]amino}-N-(^2H3)methylpyridazine-3-carboxamide] | 460
7 | [2H]C([2H])([2H])NC(=O)c1nnc(NC(=O)C2CC2)cc1Nc1cccc(-c2ncns2)c1OC [Example 9, 6-cyclopropaneamido-4-{[2-methoxy-3-(1,2,4-thiadiazol-5-yl)phenyl]amino}-N-(^2H3)methylpyridazine-3-carboxamide] | 499
8 | [2H]C([2H])([2H])NC(=O)c1nnc(NC(=O)C2CC2)cc1Nc1cccc(-c2cnc(F)cn2)c1OC [Example 10, 6-cyclopropaneamido-4-{[3-(5-fluoropyrazin-2-yl)-2-methoxyphenyl]amino}-N-(^2H3)methylpyridazine-3-carboxamide] | 513
